Measured values as given in ChEMBL document CHEMBL1145960, “Substituted pyrazolopyridopyridazines as orally bioavailable potent and selective PDE5 inhibitors: potential agents for treatment of erectile dysfunction” (J Med Chem, 2003).

Legend:
[1] = Relative inhibition of PDE2 from rat kidney and PDE5 from human platelets
[2] = Relative inhibition of PDE4 from rat kidney and PDE5 from human platelets
[3] = Relative inhibition of PDE1 from bovine heart and PDE5 from human platelets
[4] = Relative inhibition of PDE6 from bovine retina and PDE5 from human platelets
[5] = Bioavailability in rat (male); assay type: ADME, organism-based; settings: in vivo
Oryctolagus cuniculus = species: Oryctolagus cuniculus; experiment: Increased mean blood pressure in rabbit corpus carvenosum; assay type: functional
[6] = Half life of compound was determined in male dogs; assay type: ADME, organism-based, Canis lupus familiaris; settings: dog, in vivo
[7] = Bioavailability in dog (male); assay type: ADME, organism-based, Canis lupus familiaris; settings: in vivo
[8] = Relaxant effect mediated by PDE5 inhibition in rabbit corpus cavernosum; assay type: functional, tissue-based, Oryctolagus cuniculus
[9] = biological target: cGMP-specific 3',5'-cyclic phosphodiesterase (Homo sapiens, UniProt O76074); experiment: Inhibition of Phosphodiesterase 5 from human platelets
[10] = Half life of compound was determined in male rats; assay type: ADME, organism-based; settings: rat, in vivo
[11] = biological target: Phosphodiesterase 3 and 5 (PDE3 and PDE5) (Homo sapiens) (UniProt O76074+Q14432+Q13370); experiment: Relative inhibition of PDE3 and PDE5 from human platelets

Row | Structure (SMILES) | Ratio [1] | Ratio [2] | Ratio [3] | Ratio [4] | bioavailability [5] [%] | ED50 (Oryctolagus cuniculus) [µmol/kg] | half-life [6] [h] | bioavailability [7] [%] | EC50 [8] [pM] | IC50 [9] [pM] | half-life [10] [h] | Ratio [11]
1 | CCn1ncc2c(NCc3ccc(OC)c(Cl)c3)c(C(=O)NCc3ccncc3)cnc21 | 9200 | 600 | 6400 | 47 |  |  |  |  |  |  |  | 
2 | CCn1ncc2c3c(NCc4ccc(OC)c(Cl)c4)nnc(-n4cnc(C(=O)NC)c4)c3cnc21 | > 10000 | > 10000 | > 10000 | 150 | 29 | 0.1 | 2 | 42 | 13000 | 300 | 1.2 | 
3 | CCn1ncc2c3c(NCc4ccc(OC)c(Cl)c4)nnc(NCc4ccncc4)c3cnc21 | > 10000 | 4000 | > 10000 | 210 |  |  |  |  |  | 100 |  | > 10000
4 | CCn1ncc2c3c(NCc4ccc(OC)c(Cl)c4)nnc(N4CCC(C(=O)O)CC4)c3cnc21 | > 10000 | 7500 | > 10000 | 30 |  |  |  |  |  | 30 |  | > 10000
5 | CCCc1nn(C)c2c(=O)[nH]c(-c3cc(S(=O)(=O)N4CCN(C)CC4)ccc3OCC)nc12 |  |  |  |  |  | 0.11 |  |  | 19000 |  |  | 
6 | CCn1ncc2c3c(NCc4ccc(OC)c(Cl)c4)nnc(N4CCC(O)CC4)c3cnc21 | 4000 | 300 | 5700 | 80 |  |  |  |  |  |  |  | 7500
